Tests used:
Assay type in all cases: in vivo
[1] = test system: goosegrass (Eleusine indica); test: Test C postemergence, goosegrass; conditions: for Goosegrass plant response rating: visual injury, 0 to 100 scale (0 no effect, 100 complete control); for Plant response rating (0 to 100 scale), Goosegrass: 0 is no effect, 100 is complete control
In short: (§1)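 Steps: sow in loam soil blended with sand; treat soil preemergence by directed spray, or treat young plants (2–10 cm, one to two leaves) postemergence; hold in greenhouse 10 or 12 days; rate injury visually relative to untreated controls on a 0–100 scale.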

[2] = test system: foxtail, giant (giant foxtail, Setaria faberi); test: Test C postemergence, giant foxtail; conditions: for Foxtail, Giant plant response rating: visual injury, 0 to 100 scale (0 no effect, 100 complete control); for Plant response rating (0 to 100 scale), Foxtail, Giant: 0 is no effect, 100 is complete control
kochia (Bassia scoparia) = test: Test C preemergence, kochia; conditions: 0 is no effect, 100 is complete control
In short: as §1

[3] = test system: goosegrass (Eleusine indica); test: Test C preemergence, goosegrass; conditions: 0 is no effect, 100 is complete control
In short: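 Plants grown in a sand and loam soil blend received the formulated test chemicals either as a preemergence soil-directed spray or postemergence at 2 to 10 cm height. After 10 or 12 greenhouse days, injury was assessed visually, with 100 meaning complete control.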

[4] = test system: oat, wild (wild oat, Avena fatua); test: Test C postemergence, wild oat; conditions: for Oat, Wild plant response rating: visual injury, 0 to 100 scale (0 no effect, 100 complete control); for Plant response rating (0 to 100 scale), Oat, Wild: 0 is no effect, 100 is complete control
[5] = test system: ragweed (common ragweed, Ambrosia artemisiifolia); test: Test C postemergence, ragweed; conditions: for Ragweed plant response rating: visual injury, 0 to 100 scale (0 no effect, 100 complete control)
In short: as §1

[6] = test system: wheat (Triticum aestivum); test: Test C preemergence, wheat; conditions: 0 is no effect, 100 is complete control
[7] = test system: pigweed, palmer (palmer amaranth, Amaranthus palmeri); test: Test C preemergence, palmer amaranth; conditions: 0 is no effect, 100 is complete control
In short: as §1

Row | Compound | Goosegrass plant response rating ([1]; 31 g ai/ha Postemergence) | Goosegrass plant response rating ([1]; 125 g ai/ha Postemergence) | Foxtail, Giant plant response rating ([2]; 31 g ai/ha Postemergence) | Foxtail, Giant plant response rating ([2]; 125 g ai/ha Postemergence) | Plant response rating (0 to 100 scale), Kochia (kochia (Bassia scoparia); 31 g ai/ha Preemergence) | Plant response rating (0 to 100 scale), Kochia (kochia (Bassia scoparia); 125 g ai/ha Preemergence) | Plant response rating (0 to 100 scale), Goosegrass ([3]; 31 g ai/ha Preemergence) | Plant response rating (0 to 100 scale), Goosegrass ([3]; 125 g ai/ha Preemergence) | Oat, Wild plant response rating ([4]; 31 g ai/ha Postemergence) | Oat, Wild plant response rating ([4]; 125 g ai/ha Postemergence) | Ragweed plant response rating ([5]; 31 g ai/ha Postemergence) | Ragweed plant response rating ([5]; 125 g ai/ha Postemergence) | Plant response rating (0 to 100 scale), Wheat ([6]; 31 g ai/ha Preemergence) | Plant response rating (0 to 100 scale), Wheat ([6]; 125 g ai/ha Preemergence) | Plant response rating (0 to 100 scale), Pigweed, Palmer ([7]; 31 g ai/ha Preemergence) | Plant response rating (0 to 100 scale), Pigweed, Palmer ([7]; 125 g ai/ha Preemergence) | Plant response rating (0 to 100 scale), Goosegrass ([1]; 125 g ai/ha Postemergence) | Plant response rating (0 to 100 scale), Foxtail, Giant ([2]; 125 g ai/ha Postemergence) | Plant response rating (0 to 100 scale), Oat, Wild ([4]; 125 g ai/ha Postemergence) | Plant response rating (0 to 100 scale), Ragweed ([5]; 125 g ai/ha Postemergence, 0 is no effect, 100 is complete control)
1 | C=C(C)COC1CCN(c2cc(NS(=O)(=O)C(F)(F)F)c(C)cc2C)C1=O (stereo not drawn) [Compound 59] | 70 | 90 | 10 | 90 | 80 | 100 | 90 | 100 | 30 | 90 | 10 | 70 | 40 | 100 | 100 | 100 | – | – | – | –
2 | Cc1cc(C)c(N(COC(=O)C(C)(C)C)S(=O)(=O)C(F)(F)F)cc1N1CCC(OCC2CC2(F)F)C1=O (stereo not drawn) [Compound 54] | 60 | 90 | 30 | 70 | 0 | 30 | 20 | 100 | 10 | 80 | 50 | 80 | 0 | 80 | 0 | 50 | – | – | – | –
3 | Cc1cc(C)c(N2CCC(OC3COC3)C2=O)cc1NS(=O)(=O)C(F)(F)F (stereo not drawn) [Compound 34] | 30 | – | 40 | – | 90 | 100 | 30 | 100 | 30 | – | 90 | 90 | 30 | 80 | 100 | 100 | 80 | 90 | 70 | –
4 | Cc1c(NS(=O)(=O)C(F)(F)F)cc(N2CCC(OCC3CC3)C2=O)c(C)c1F (stereo not drawn) [Compound 63] | 0 | 90 | 0 | 30 | 90 | 100 | 100 | 100 | 0 | 40 | 40 | 80 | 80 | 100 | 100 | 100 | – | – | – | –
5 | Cc1cc(C)c(N(C(=O)OC(C)C)S(=O)(=O)C(F)(F)F)cc1N1CCC(OC2CC2)C1=O (stereo not drawn) [Compound 18] | 0 | – | 0 | – | 0 | 60 | 0 | 0 | 0 | – | 0 | – | 0 | 0 | 0 | 20 | 0 | 0 | 0 | 50
6 | COC(=O)N(c1cc(N2CCC(OC3CC3)C2=O)c(C)cc1Cl)S(=O)(=O)C(F)(F)F (stereo not drawn) [Compound 40] | 50 | – | 50 | – | 90 | 100 | 100 | 100 | 50 | – | 60 | 80 | 60 | 100 | 80 | 100 | 90 | 90 | 80 | –

Reference: US20240158348A1, “HERBICIDAL CYCLIC AMIDES N-SUBSTITUTED WITH A HALOALKYLSULFONYLANILIDE GROUP” (FMC Corporation, priority 2021, published 2024)
